Key:
Assay type in all cases: in vivo
Amaranthus retroflexus = assay: Pre-emergence herbicidal efficacy, AMARE; conditions: Table B2, application rate 320 g/ha, scored visually after about 3 weeks vs untreated controls
Text: (§1) C.1 Pre-Emergence Herbicidal Action and Crop Plant Compatibility
(§2) Seeds of monocotyledonous and dicotyledonous weed plants and crop plants are placed in plastic or organic planting pots and covered with soil. The compounds of the invention, formulated in the form of wettable powders (WP) or as emulsion concentrates (EC), are then applied onto the surface of the covering soil as aqueous suspension or emulsion with addition of 0.5% additive at a water application rate of […] (converted). After the treatment, the pots are placed in a greenhouse and kept under good growth conditions for the trial plants. After about 3 weeks, the effect of the preparations is scored visually in comparison with untreated controls as percentages. For example, 100% activity=the plants have died, 0% activity=like control plants.
(§3) ABUTH: Abutilon theophrasti ALOMY: Alopecurus myosuroides AMARE: Amaranthus retroflexus AVEFA: Avena fatua CYPES: Cyperus esculentus ECHCG: Echinochloa crus-galli LOLMU: Lolium multiflorum MATIN: Matricaria inodora PHBPU: Ipomoea purpurea POLCO: Polygonum convolvulus SETVI: Setaria viridis STEME: Stellaria media VERPE: Veronica persica VTOTR: Viola tricolor

Polygonum convolvulus = assay: Pre-emergence herbicidal efficacy, POLCO; conditions: Table B2, application rate 320 g/ha, scored visually after about 3 weeks vs untreated controls
Text: as §1, §2, §3

Stellaria media = assay: Pre-emergence herbicidal efficacy, STEME
Text: as §1, §2, §3

Matricaria inodora = assay: Pre-emergence herbicidal efficacy, MATIN
Text: as §1, §2, §3

Veronica persica = assay: Pre-emergence herbicidal efficacy, VERPE; conditions: Table B2, application rate 320 g/ha, scored visually after about 3 weeks vs untreated controls
Text: as §1, §2, §3

Viola tricolor = assay: Pre-emergence herbicidal efficacy, VIOTR
Text: as §1, §2, §3

[1] = Table B2, application rate 320 g/ha, scored visually after about 3 weeks vs untreated controls
[2] = application rate 320 g/ha, scored visually after about 3 weeks

Cc1ccc2c(c1)C(Nc1nc3n(n1)CCCS3)CCC2 (racemic) [Example I-207]
100%: Herbicidal efficacy against AMARE (Amaranthus retroflexus) | Herbicidal efficacy against POLCO (Polygonum convolvulus) | Herbicidal efficacy against STEME (Stellaria media; [1]) | Herbicidal efficacy against MATIN (Matricaria inodora; [1]) | Herbicidal efficacy against VERPE (Veronica persica) | Herbicidal efficacy against VIOTR (Viola tricolor; [1])

Cc1ccc2c(c1)[C@H](Nc1nc3n(n1)CCN(C(=O)C1CCCCC1)C3)CCC2 [Example I-187]
90%: Herbicidal efficacy against MATIN (Matricaria inodora; [1])
100%: Herbicidal efficacy against AMARE (Amaranthus retroflexus) | Herbicidal efficacy against POLCO (Polygonum convolvulus) | Herbicidal efficacy against STEME (Stellaria media; [1]) | Herbicidal efficacy against VERPE (Veronica persica) | Herbicidal efficacy against VIOTR (Viola tricolor; [1])

Cc1ccc2c(c1)[C@H](Nc1nc3n(n1)CCN(S(=O)(=O)C1CCCC1)C3)[C@@H](C)C2 [Example I-193]
90%: Herbicidal efficacy against MATIN (Matricaria inodora; [1])
100%: Herbicidal efficacy against AMARE (Amaranthus retroflexus) | Herbicidal efficacy against POLCO (Polygonum convolvulus) | Herbicidal efficacy against STEME (Stellaria media; [1]) | Herbicidal efficacy against VERPE (Veronica persica) | Herbicidal efficacy against VIOTR (Viola tricolor; [1])

Cc1ccc2c(c1)[C@H](Nc1nc3n(n1)CCN(S(=O)(=O)C1CCCC1)C3)CCC2 [Example I-201]
100%: Herbicidal efficacy against AMARE (Amaranthus retroflexus) | Herbicidal efficacy against POLCO (Polygonum convolvulus) | Herbicidal efficacy against STEME (Stellaria media; [1]) | Herbicidal efficacy against VERPE (Veronica persica) | Herbicidal efficacy against VIOTR (Viola tricolor; [1])
90%: Herbicidal efficacy against MATIN (Matricaria inodora; [1])

Cc1ccc2c(c1)[C@H](Nc1nc3n(n1)CCN(S(=O)(=O)c1ccccc1Cl)C3)CCC2 [Example I-203]
90%: Herbicidal efficacy against MATIN (Matricaria inodora; [1])
100%: Herbicidal efficacy against AMARE (Amaranthus retroflexus) | Herbicidal efficacy against POLCO (Polygonum convolvulus) | Herbicidal efficacy against STEME (Stellaria media; [1]) | Herbicidal efficacy against VERPE (Veronica persica) | Herbicidal efficacy against VIOTR (Viola tricolor; [1])

Cc1ccc2c(c1)C(Nc1nc3n(n1)CCCS3(=O)=O)CCC2 (centres unmarked) [Example I-239]
100%: Herbicidal efficacy against AMARE (Amaranthus retroflexus) | Herbicidal efficacy against POLCO (Polygonum convolvulus) | Herbicidal efficacy against STEME (Stellaria media; [1]) | Herbicidal efficacy against MATIN (Matricaria inodora; [1]) | Herbicidal efficacy against VERPE (Veronica persica) | Herbicidal efficacy against VIOTR (Viola tricolor; [1])

[O-][S+]1CCCCn2nc(NC3CCc4ccccc43)nc21 (centres unmarked) [Example I-250]
100%: Herbicidal efficacy against AMARE (Amaranthus retroflexus) | Herbicidal efficacy against POLCO (Polygonum convolvulus) | Herbicidal efficacy against STEME (Stellaria media; [1]) | Herbicidal efficacy against STEME (Stellaria media; [2]) | Herbicidal efficacy against MATIN (Matricaria inodora; [1]) | Herbicidal efficacy against MATIN (Matricaria inodora; [2]) | Herbicidal efficacy against VIOTR (Viola tricolor; [1]) | Herbicidal efficacy against VIOTR (Viola tricolor; [2])
90%: Herbicidal efficacy against VERPE (Veronica persica)

O=S1(=O)CCCCn2nc(NC3CCCc4ccccc43)nc21 (centres unmarked) [Example I-253]
100%: Herbicidal efficacy against AMARE (Amaranthus retroflexus) | Herbicidal efficacy against POLCO (Polygonum convolvulus) | Herbicidal efficacy against STEME (Stellaria media; [1]) | Herbicidal efficacy against STEME (Stellaria media; [2]) | Herbicidal efficacy against MATIN (Matricaria inodora; [1]) | Herbicidal efficacy against MATIN (Matricaria inodora; [2]) | Herbicidal efficacy against VERPE (Veronica persica) | Herbicidal efficacy against VIOTR (Viola tricolor; [1]) | Herbicidal efficacy against VIOTR (Viola tricolor; [2])

CN1C(=O)CCn2nc(NC3CCCc4ccccc43)nc21 (centres unmarked) [Example I-278]
80%: Herbicidal efficacy against STEME (Stellaria media; [2]) | Herbicidal efficacy against MATIN (Matricaria inodora; [2])
100%: Herbicidal efficacy against AMARE (Amaranthus retroflexus) | Herbicidal efficacy against POLCO (Polygonum convolvulus) | Herbicidal efficacy against STEME (Stellaria media; [1]) | Herbicidal efficacy against MATIN (Matricaria inodora; [1]) | Herbicidal efficacy against VERPE (Veronica persica) | Herbicidal efficacy against VIOTR (Viola tricolor; [1])
90%: Herbicidal efficacy against VIOTR (Viola tricolor; [2])

Cc1ccc2c(c1)C(Nc1nc3n(n1)CCCN3S(C)(=O)=O)CC2 (centres unmarked) [Example I-301]
90%: Herbicidal efficacy against VERPE (Veronica persica)
100%: Herbicidal efficacy against AMARE (Amaranthus retroflexus) | Herbicidal efficacy against STEME (Stellaria media; [1]) | Herbicidal efficacy against MATIN (Matricaria inodora; [1]) | Herbicidal efficacy against VIOTR (Viola tricolor; [1])
80%: Herbicidal efficacy against POLCO (Polygonum convolvulus)

Cc1ccc2c(c1)C(Nc1nc3n(n1)CCC(=O)N3C(C)C)CCC2 (centres unmarked) [Example I-316]
100%: Herbicidal efficacy against POLCO (Polygonum convolvulus) | Herbicidal efficacy against STEME (Stellaria media; [1]) | Herbicidal efficacy against STEME (Stellaria media; [2]) | Herbicidal efficacy against MATIN (Matricaria inodora; [1]) | Herbicidal efficacy against MATIN (Matricaria inodora; [2]) | Herbicidal efficacy against VERPE (Veronica persica) | Herbicidal efficacy against VIOTR (Viola tricolor; [1]) | Herbicidal efficacy against VIOTR (Viola tricolor; [2])

— patent US20200331904A1, “3-AMINO-[1,2,4]-TRIAZOLE DERIVATIVES AND THEIR USE FOR CONTROLLING UNDESIRED PLANT GROWTH” (Bayer CropScience Aktiengesellschaft, priority 2017, published 2020)
